Numbered stars: 1 amine (or outer) side, 2 acyl side, 3 side chain; on linkers, the order of the positions; unused ones are H or OH. Square brackets hold non-standard residues; d marks the D form. Peptide text beside a SMILES is read from it. X1 = C#Cc1cccc(-c2cn(C[C@H](N[*:1])C(=O)[*:2])nn2)c1; X2 = C#Cc1cccc(-c2cnnn2C[C@H](N[*:1])C(=O)[*:2])c1
Columns and labels:
[1] = target: mMC3R (Mus musculus, UniProt P33033); test: AlphaScreen cAMP agonist assay in HEK293 cells stably expressing mMC3R; conditions: for Fold diff (mMC3R): decrease in agonist potency compared to peptide 1
mMC3R, sequence (P33033 whole entry): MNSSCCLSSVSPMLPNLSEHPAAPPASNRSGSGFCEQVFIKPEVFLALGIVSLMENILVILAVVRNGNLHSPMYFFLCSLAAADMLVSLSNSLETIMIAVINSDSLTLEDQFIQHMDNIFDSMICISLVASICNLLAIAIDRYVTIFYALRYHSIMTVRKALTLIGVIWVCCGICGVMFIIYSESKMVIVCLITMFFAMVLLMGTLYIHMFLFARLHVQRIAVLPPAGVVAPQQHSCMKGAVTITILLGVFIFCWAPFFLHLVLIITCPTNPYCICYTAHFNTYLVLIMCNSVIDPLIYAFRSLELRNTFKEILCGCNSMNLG

[2] = target: mMC5R (Mus musculus, UniProt P41149); test: AlphaScreen cAMP agonist assay in HEK293 cells stably expressing mMC5R; conditions: for Fold diff (mMC5R): decrease in agonist potency compared to peptide 1
mMC5R, sequence (P41149 whole entry): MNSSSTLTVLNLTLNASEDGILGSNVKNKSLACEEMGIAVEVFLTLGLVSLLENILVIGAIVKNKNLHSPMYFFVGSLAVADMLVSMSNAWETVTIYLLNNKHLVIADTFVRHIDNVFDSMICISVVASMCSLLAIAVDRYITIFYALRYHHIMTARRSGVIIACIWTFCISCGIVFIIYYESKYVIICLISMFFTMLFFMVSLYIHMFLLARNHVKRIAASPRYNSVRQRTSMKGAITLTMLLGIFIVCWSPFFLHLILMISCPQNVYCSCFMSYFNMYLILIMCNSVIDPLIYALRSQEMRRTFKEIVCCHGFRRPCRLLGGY

[3] = target: mMC4R (Mus musculus, UniProt P56450); test: AlphaScreen cAMP agonist assay in HEK293 cells stably expressing mMC4R; conditions: for Fold diff (mMC4R): decrease in agonist potency compared to peptide 1
mMC4R, sequence (P56450 whole entry): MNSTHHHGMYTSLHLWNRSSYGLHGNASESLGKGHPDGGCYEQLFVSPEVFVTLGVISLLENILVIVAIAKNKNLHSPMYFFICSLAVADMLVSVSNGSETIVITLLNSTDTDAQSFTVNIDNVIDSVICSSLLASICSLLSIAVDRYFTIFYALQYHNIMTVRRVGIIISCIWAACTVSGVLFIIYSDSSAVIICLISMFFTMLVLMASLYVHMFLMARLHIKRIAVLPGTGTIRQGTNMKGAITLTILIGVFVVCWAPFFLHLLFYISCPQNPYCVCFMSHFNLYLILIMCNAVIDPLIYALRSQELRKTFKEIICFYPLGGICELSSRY

[4] = target: mMC1R (Mus musculus, UniProt Q01727); test: AlphaScreen cAMP agonist assay in HEK293 cells stably expressing mMC1R; conditions: for Fold diff (mMC1R): decrease in agonist potency compared to peptide 1
mMC1R, sequence (Q01727 whole entry): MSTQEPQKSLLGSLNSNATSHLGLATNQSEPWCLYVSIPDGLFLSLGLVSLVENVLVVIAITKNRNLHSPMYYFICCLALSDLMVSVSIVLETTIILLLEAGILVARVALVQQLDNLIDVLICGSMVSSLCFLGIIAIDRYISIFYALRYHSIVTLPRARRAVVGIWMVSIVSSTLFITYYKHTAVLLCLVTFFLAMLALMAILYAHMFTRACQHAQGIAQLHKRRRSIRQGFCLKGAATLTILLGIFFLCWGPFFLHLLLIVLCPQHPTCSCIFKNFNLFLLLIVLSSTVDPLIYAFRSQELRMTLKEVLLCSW

C#Cc1cccc(-c2cn(C[C@H](NC(=O)[C@H](Cc3ccccc3)NC(=O)[C@H](C)NC(=O)[C@H](CC(N)=O)NC(=O)[C@H](Cc3c[nH]c4ccccc34)NC(=O)[C@H](CCCNC(=N)N)NC(=O)[C@@H](Cc3ccccc3)NC(=O)[C@H](Cc3c[nH]cn3)NC(=O)[C@H](Cn3cc(-c4cccc(C#C)c4)nn3)NC(=O)[C@@H](N)Cc3ccc(O)cc3)C(=O)N[C@@H](Cc3ccc(O)cc3)C(N)=O)nn2)c1 [Peptide 9] (H-Y[X1]H[dF]RWNAF[X1]Y-NH2)
EC50 [1]: 1460 ± 245 nM
Fold diff (mMC3R) [1]: 665 fold
EC50 [2]: 294 ± 4.8 nM
Fold diff (mMC5R) [2]: 122 fold
EC50 [3]: 1520 ± 328 nM
Fold diff (mMC4R) [3]: 3540 fold
EC50 [4]: 802 ± 227 nM
Fold diff (mMC1R) [4]: 5728 fold

C[C@@H]1NC(=O)[C@H](CC(N)=O)NC(=O)[C@H](Cc2c[nH]c3ccccc23)NC(=O)[C@H](CCCN=C(N)N)NC(=O)[C@@H](Cc2ccccc2)NC(=O)[C@H](Cc2cnc[nH]2)NC(=O)[C@@H](NC(=O)[C@@H](N)Cc2ccc(O)cc2)CSSC[C@@H](C(=O)N[C@@H](Cc2ccc(O)cc2)C(N)=O)NC(=O)[C@H](Cc2ccccc2)NC1=O [Peptide 1, Tyr-c[Cys-His-DPhe-Arg-Trp-Asn-Ala-Phe-Cys]-Tyr-NH2, reference compound]
EC50 [1]: 2.2 ± 0.58 nM
EC50 [2]: 2.4 ± 0.31 nM
EC50 [3]: 0.43 ± 0.13 nM
EC50 [4]: 0.14 ± 0.01 nM

C#Cc1cccc(-c2cnnn2C[C@H](NC(=O)[C@H](Cc2ccccc2)NC(=O)[C@H](C)NC(=O)[C@H](CC(N)=O)NC(=O)[C@H](Cc2c[nH]c3ccccc23)NC(=O)[C@H](CCCNC(=N)N)NC(=O)[C@@H](Cc2ccccc2)NC(=O)[C@H](Cc2c[nH]cn2)NC(=O)[C@H](Cn2nncc2-c2cccc(C#C)c2)NC(=O)[C@@H](N)Cc2ccc(O)cc2)C(=O)N[C@@H](Cc2ccc(O)cc2)C(N)=O)c1 [Peptide 12] (H-Y[X2]H[dF]RWNAF[X2]Y-NH2)
EC50 [1]: 404 ± 52 nM
Fold diff (mMC3R) [1]: 184 fold
EC50 [2]: 107 ± 17 nM
Fold diff (mMC5R) [2]: 45 fold
EC50 [3]: 142 ± 30 nM
Fold diff (mMC4R) [3]: 330 fold
EC50 [4]: 116 ± 40 nM
Fold diff (mMC1R) [4]: 829 fold

— article PMC5955799 (ACS chemical neuroscience, 2018)
